Source: patent US20220128542A1, “TREATMENT EFFICIENCY EVALUATION” (TX MEDIC AB, priority 2019, published 2022)

Test system: Human Schwann cells
Experiment: Gene expression array and pathway/upstream regulator analysis in Schwann cells (Example 2)
Assay type: cell-based
Settings: 0.01 mg/ml
Description: For each cell line, n=8×25 cm^2 culture flasks were set up. Two flasks were harvested for each cell type on the day of treatment (24 hours after seeding). This represents the Day0 time point. From the remaining flasks, three flasks were treated with Control Medium and three were treated with Culture Medium (CM) containing LMW-DS to give a final concentration of 0.01 mg/ml. Cells from the treated flasks were collected after 48 hours. Therefore the collected data represent (a) untreated cells (Day0 Controls and Day2 Controls) and (b) cells treated with LMW-DS for 48 hours (Day2 LMW-DS treated).
25 cm^2 flasks were coated by adding 2 ml per flask of a solution of 50 μg/ml poly-d-lysine in Hank's balanced salt solution (HBSS) and incubating overnight at 37° C. in the dark. Flasks were washed with cell culture water and air-dried for 30 min in the dark. Flasks were coated by adding 1 ml per flask of a solution of 25 μg/ml laminin in phosphate-buffered saline (PBS) and incubating for 2 hour at 37° C. in the dark. The laminin flasks were washed with PBS three times before plating cells.
Schwann cells growth medium was prepared by adding 10% of fetal bovine serum (FBS) to high-glucose DMEM and pre-warmed to 37° C. Cells were thawed in a 37° C. water bath for no longer than 2 min.
Cells from 12 vials were each gently transferred to a tube containing 10 ml of high-glucose DMEM medium and centrifuged at 400 relative centrifugal field (RCF) for 10 min. Pellet was re-suspended in culture medium. The cells from the 12 vials were mixed and distributed equally into the previously coated 25 cm^2 flasks (n=8). Cells were incubated at 37° C. with 5% CO2. Cells were allowed to settle for 24 hours before LMW-DS treatment.
A fresh 100× LMW-DS stock (1.0 mg/ml) was prepared in sterile DMEM-F12. The concentrated drug stock was sterile filtered and added to the respective culture media (19.6 ml CM and 0.4 ml LMW-DS stock solution). The Control was made using 19.6 ml CM and 0.4 ml of DMEM-F12. LMW-DS and CM were added to the respective flasks (5 ml each) to reach the 0.01 mg/ml concentration of LMW-DS in each dish with a total of 10 ml CM each.
CM was aspirated into a clean and labelled 15 ml Falcon tube. The flasks (without culture medium) were placed into the −80° C. freezer for 30 minutes. The CM in the Falcon tubes was spun at 3000×g for 5 minutes. Supernatant was removed and the small pellet was re-suspended in 2.5 ml Trizol:Water (4:1) solution at room temperature (RT, ˜22° C.).
The frozen flasks were removed one-by one from the freezer and the Trizol-Water from the appropriate tubes was moved to the flask. Flasks were left at RT for 5 minutes before the content was aspirated back into the 15 ml Falcon tube (after washing the bottom of the flask with the solution thoroughly). The flasks were inspected under the microscope to ensure full removal of cells. The collected lysates in the 15 ml Falcon tubes were placed into the −80° C. freezer.
Falcon tubes containing the homogenates were removed from the freezer and stored for 5 minutes at RT to permit the complete dissociation of nucleoprotein complexes.
Two aliquots of 1 ml lysate were removed from each sample and 200 μl of chloroform was added to each (0.2 ml of chloroform per 1 ml of TRIzol Reagent used during the cell lysis step) and the tube was shaken vigorously. Samples were stored at RT for 2-3 minutes and subsequently centrifuged at 12,000×g for 15 minutes at 4° C.
The mixture separated into three layers: a lower red phenol-chloroform phase, an interphase and a colorless upper aqueous phase. The RNA remained in the top aqueous phase, DNA in the white middle (interphase) phase and protein in the pink bottom (organic) phase. The top ¾ of the aqueous phase was transferred to a new clean Eppendorf tube.
The RNA was precipitated from the aqueous phase by adding an equal amount of 100% ethanol. The precipitated RNA was fixed onto a Spin Cartridge, washed twice and dried. […]

sodium salt of dextran sulfate [LMW-DS]
number of genes: no effect / abolished nutrient effect (48 hours): 21
number of genes: no effect / total (48 hours): 21
number of genes: significant downregulation / abolished nutrient effect (48 hours): 1
number of genes: significant downregulation / enhanced response to nutrients (48 hours): 122
number of genes: significant downregulation / new effect induced by LMW-DS (48 hours): 352
number of genes: significant downregulation / not different from control (48 hours): 42
number of genes: significant downregulation / total (48 hours): 517
number of genes: significant upregulation / abolished nutrient effect (48 hours): 13
number of genes: significant upregulation / enhanced response to nutrients (48 hours): 441
number of genes: significant upregulation / new effect induced by LMW-DS (48 hours): 74
number of genes: significant upregulation / not different from control (48 hours): 373
number of genes: significant upregulation / total (48 hours): 901
number of genes: total / abolished nutrient effect (48 hours): 35
number of genes: total / enhanced response to nutrients (48 hours): 563
number of genes: total / new effect induced by LMW-DS (48 hours): 426
number of genes: total / not different from control (48 hours): 415
number of genes: total / total (48 hours): 1439
differentially expressed genes (D0 control vs D2 LMW-DS treated): 1244 genes
differentially expressed genes (D2 control vs D2 LMW-DS treated): 700 genes
